Literature values, collected in patent US20040063806A1, “Antimicrobial polyalphaolefin composition” (priority 2000, published 2004).
Like-named read-outs stand apart in the source and are kept apart here.

Columns and labels:
[1] = system: Actinomyces naeslundii; conditions: origin A, medium NA
[2] = system: Lactobacillus delbrueckii; conditions: Lactobacillus delbrueckii ATCC 7830, medium MACA
[3] = system: Streptococcus agalactiae; conditions: Streptococcus agalactiae NCTC 8181, medium BHI-A
[4] = system: Streptococcus pneumoniae; conditions: Streptococcus pneumoniae ATCC 33400, medium M-H
[5] = system: Epidermophyton floccosum; conditions: Epidermophyton floccosum ATCC 10227, medium SMA
[6] = system: Corynebacterium minutissimum; conditions: Corynebacterium minutissimum ATCC 23348, medium BHI-A
[7] = system: Listeria monocytogenes; conditions: Listeria monocytogenes ATCC 15313, medium BHI-A
[8] = system: Staphylococcus aureus
[9] = system: Vibrio cholerae; conditions: origin A, medium NA
[10] = system: Klebsiella aerogenes; conditions: Klebsiella aerogenes NCTC 8172, medium NA
[11] = system: Pseudomonas aeruginosa
[12] = system: Clostridium sporogenes; conditions: origin A, medium EA
[13] = system: Clostridium difficile; conditions: Clostridium difficile ATCC 9684, medium BHI-A
[14] = system: Pasteurella pseudotuberculosis; conditions: origin C-G, medium NA
[15] = system: Corynebacterium acnes; conditions: Corynebacterium acnes* ATCC 6919, medium BHI-A
[16] = system: Streptococcus saprophyticus; conditions: Streptococcus saprophyticus ATCC 15305, medium M-H
[17] = system: Loefferella mallei; conditions: Loefferella mallei NCTC 9674, medium NA
[18] = system: Bacillus megatherium; conditions: origin A, medium NA
[19] = system: Salmonella paratyphi A; conditions: Salmonella paratyphi A NCTC 5322, medium NA
[20] = system: Klebsiella pneumoniae
[21] = system: Bacillus cereus var. mycoides; conditions: origin A, medium NA
[22] = system: Mycobacterium smegmatis; conditions: Mycobacterium smegmatis NCTC 8152, medium BHI-A
[23] = system: Escherichia coli
[24] = system: Clostridium tetani; conditions: Clostridium tetani NCTC 9571, medium EA
[25] = system: Bacillus cereus; conditions: origin A, medium NA
[26] = system: Brucella intermedia; conditions: origin A, medium BR.A.A.
[27] = system: Candida stellatoidae; conditions: origin A, medium SMA
[28] = system: Klebsiella oxytoca; conditions: Klebsiella oxytoca ATCC 43165, medium M-H
[29] = system: Actinomyces israelii; conditions: Actinomyces israelii NCTC 8047, medium NA
[30] = system: Clostridium botulinum; conditions: Clostridium botulinum NCTC 3805, medium EA
[31] = system: Alcaligenes faecalis; conditions: origin A, medium NA
[32] = system: Salmonella paratyphi B
[33] = system: Pasteurella septica; conditions: Pasteurella septica NCTC 948, medium NA
[34] = system: Brucella abortus; conditions: Brucella abortus NCTC 8226, medium BR.A.A.
[35] = system: Sarcina urea; conditions: Sarcina urea ATCC 6473, medium BHI-A
[36] = system: Shigella sonnei; conditions: Shigella sonnei NCTC 7240, medium NA
[37] = system: Vibrio eltor; conditions: Vibrio eltor NCTC 8457, medium NA
[38] = system: Candida utilis; conditions: origin A, medium SMA

With `Oc1cc(Cl)ccc1Oc1ccc(Cl)cc1Cl` [IRGAGUARD B 1000, 2,4,4′-trichloro-2′-hydroxydiphenyl ether] as the molecule, how does the Microbiostatic effect [1] read?
The Microbiostatic effect was 1.0 ppm.

What about the Microbiostatic effect [2] of the same molecule?
The Microbiostatic effect was 33.0 ppm.

And the Microbiostatic effect [3]?
Its Microbiostatic effect is 3.0 ppm.

And the Microbiostatic effect [4]?
The Microbiostatic effect was 4.0 ppm.

What about the Microbiostatic effect [5] of the same molecule?
The Microbiostatic effect was 1-10 ppm.

And the Microbiostatic effect [6]?
The Microbiostatic effect was 3.0 ppm.

What about the Microbiostatic effect [7] of the same molecule?
Its Microbiostatic effect is 1.0 ppm.

What about the Microbiostatic effect ([8]; Staphylococcus aureus ATCC 6538, medium NA) of the same molecule?
Its Microbiostatic effect is 0.01 ppm.

What about the Microbiostatic effect ([8]; Staphylococcus aureus ATCC 9144, medium M-H) of the same molecule?
Its Microbiostatic effect is 0.05 ppm.

And the Microbiostatic effect ([8]; Staphylococcus aureus ATCC 13709, medium NA)?
Its Microbiostatic effect is 0.01 ppm.

And the Microbiostatic effect ([8]; Staphylococcus aureus ATCC 29213, medium M-H)?
Its Microbiostatic effect is <0.125 ppm.

And the Microbiostatic effect ([8]; Staphylococcus aureus NCTC 6571, medium NA)?
Its Microbiostatic effect is 0.03 ppm.

And the Microbiostatic effect ([8]; Staphylococcus aureus NCTC 6966, medium NA)?
Its Microbiostatic effect is 0.1 ppm.

And the Microbiostatic effect ([8]; Staphylococcus aureus NCTC 10443, medium M-H, Methicillin resistant)?
The Microbiostatic effect was 0.01 ppm.

And the Microbiostatic effect ([8]; Staphylococcus aureus NCTC 10703, medium M-H, Methicillin resistant)?
Its Microbiostatic effect is 0.01 ppm.

What about the Microbiostatic effect ([8]; Staphylococcus aureus NCTC 11150, medium M-H, Methicillin resistant) of the same molecule?
Its Microbiostatic effect is 0.02 ppm.

And the Microbiostatic effect ([8]; Staphylococcus aureus NCTC 11940, medium M-H, Methicillin resistant)?
The Microbiostatic effect was 0.01 ppm.

What about the Microbiostatic effect ([8]; Staphylococcus aureus NCTC 12232, medium M-H, Methicillin resistant) of the same molecule?
The Microbiostatic effect was 0.01 ppm.

What about the Microbiostatic effect ([8]; Staphylococcus aureus NCTC 12493, medium M-H, Methicillin resistant) of the same molecule?
The Microbiostatic effect was 0.01 ppm.

What about the Microbiostatic effect ([8]; Staphylococcus aureus NCTC 12497, medium M-H, Methicillin resistant) of the same molecule?
The Microbiostatic effect was 0.01 ppm.

What about the Microbiostatic effect [9] of the same molecule?
Its Microbiostatic effect is 10.0 ppm.

What about the Microbiostatic effect [10] of the same molecule?
The Microbiostatic effect was 0.3 ppm.

And the Microbiostatic effect ([11]; Pseudomonad aeruginosa ATCC 12055, medium NA)?
The Microbiostatic effect was >1000 ppm.

And the Microbiostatic effect ([11]; Pseudomonas aeruginosa NCTC 8060, medium NA)?
The Microbiostatic effect was >1000 ppm.

What about the Microbiostatic effect [12] of the same molecule?
Its Microbiostatic effect is 10.0 ppm.

What about the Microbiostatic effect [13] of the same molecule?
The Microbiostatic effect was 5.0 ppm.

What about the Microbiostatic effect [14] of the same molecule?
Its Microbiostatic effect is 10.0 ppm.

And the Microbiostatic effect [15]?
The Microbiostatic effect was 3.0 ppm.

What about the Microbiostatic effect [16] of the same molecule?
Its Microbiostatic effect is 0.125 ppm.

And the Microbiostatic effect [17]?
Its Microbiostatic effect is 0.3 ppm.

And the Microbiostatic effect [18]?
The Microbiostatic effect was 3.0 ppm.

And the Microbiostatic effect [19]?
Its Microbiostatic effect is 0.3 ppm.

And the Microbiostatic effect ([20]; Klebsiella pneumoniae ATCC 4352, medium NA)?
Its Microbiostatic effect is 0.3 ppm.

And the Microbiostatic effect ([20]; Klebsiella pneumoniae ATCC 10031, medium M-H)?
Its Microbiostatic effect is 0.125 ppm.

And the Microbiostatic effect [21]?
Its Microbiostatic effect is 3.0 ppm.

And the Microbiostatic effect [22]?
The Microbiostatic effect was 1.0 ppm.

What about the Microbiostatic effect ([23]; Escheria coli ATCC 8196, medium M-H) of the same molecule?
Its Microbiostatic effect is 0.02 ppm.

What about the Microbiostatic effect ([23]; Escherichia coli ATCC 4388, medium M-H, Serotype 0157) of the same molecule?
Its Microbiostatic effect is 0.1 ppm.

And the Microbiostatic effect ([23]; Escherichia coli ATCC 9661, medium NA)?
Its Microbiostatic effect is 0.3 ppm.

What about the Microbiostatic effect ([23]; Escherichia coli ATCC 10536, medium BHI) of the same molecule?
Its Microbiostatic effect is 0.5 ppm.

What about the Microbiostatic effect ([23]; Escherichia coli ATCC 11229, medium M-H) of the same molecule?
The Microbiostatic effect was 0.5 ppm.

And the Microbiostatic effect ([23]; Escherichia coli ATCC 25922, medium M-H)?
Its Microbiostatic effect is 0.25 ppm.

And the Microbiostatic effect ([23]; Escherichia coli ATCC 35150, medium M-H, Serotype 0157)?
Its Microbiostatic effect is 0.2 ppm.

And the Microbiostatic effect ([23]; Escherichia coli ATCC 43889, medium M-H, Serotype 0157)?
Its Microbiostatic effect is 0.2 ppm.

And the Microbiostatic effect ([23]; Escherichia coli ATCC 43890, medium M-H, Serotype 0157)?
The Microbiostatic effect was 0.2 ppm.

What about the Microbiostatic effect ([23]; Escherichia coli NCTC 9663, medium NA) of the same molecule?
Its Microbiostatic effect is 0.3 ppm.

And the Microbiostatic effect ([23]; Escherichia coli NCTC 11186, medium M-H, Tobramicin resistant)?
The Microbiostatic effect was 0.5 ppm.

And the Microbiostatic effect [24]?
The Microbiostatic effect was 3.0 ppm.

What about the Microbiostatic effect [25] of the same molecule?
Its Microbiostatic effect is 3.0 ppm.

And the Microbiostatic effect [26]?
Its Microbiostatic effect is 0.1 ppm.

And the Microbiostatic effect [27]?
The Microbiostatic effect was 10 ppm.

What about the Microbiostatic effect [28] of the same molecule?
Its Microbiostatic effect is 1.0 ppm.

What about the Microbiostatic effect [29] of the same molecule?
The Microbiostatic effect was 1.0 ppm.

And the Microbiostatic effect [30]?
The Microbiostatic effect was 3.0 ppm.

And the Microbiostatic effect [31]?
The Microbiostatic effect was >100 ppm.

And the Microbiostatic effect ([32]; Salmonella paratyphi B NCTC 3176, medium NA)?
Its Microbiostatic effect is 0.3 ppm.

What about the Microbiostatic effect ([32]; Salmonella paratyphi B NCTC 5704, medium NA) of the same molecule?
Its Microbiostatic effect is 0.1 ppm.

What about the Microbiostatic effect [33] of the same molecule?
The Microbiostatic effect was 0.1 ppm.

What about the Microbiostatic effect [34] of the same molecule?
Its Microbiostatic effect is 0.1 ppm.

And the Microbiostatic effect [35]?
Its Microbiostatic effect is 0.1 ppm.

What about the Microbiostatic effect [36] of the same molecule?
Its Microbiostatic effect is 0.1 ppm.

What about the Microbiostatic effect [37] of the same molecule?
The Microbiostatic effect was 10.0 ppm.

What about the Microbiostatic effect [38] of the same molecule?
Its Microbiostatic effect is 33 ppm.
